Test results taken from ChEMBL document CHEMBL1201862, “PubChem BioAssay data set” (2004).
Blank lines part the entries; values can stand above or below the compound they belong to. Activity calls are given as the source filed them.

How the values were obtained:
[1] = biological target: Signal transducer and activator of transcription 1-alpha/beta (Homo sapiens, UniProt P42224); assay: STAT3 inhibitors, late-stage profile, late-stage follow-up, cell-based, STAT1 panel, qPCR, cytotoxicity, panel member STAT1 Inhibition (AID 2078)
[2] = biological target: Signal transducer and activator of transcription 3 (Homo sapiens, UniProt P40763); assay: STAT3 inhibitors, late-stage profile, late-stage follow-up, cell-based, STAT1 panel, qPCR, cytotoxicity, panel member STAT3 Inhibition (AID 2078)
[3] = biological target: Sphingosine 1-phosphate receptor 3 (Homo sapiens, UniProt Q99500); assay: (§1) Late-stage fluorescence-based dose-response cell-based assay to identify agonists of the Sphingosine 1-Phosphate Receptor 4 (S1P4): Sphingosine 1-Phosphate Receptor 3 (S1P3) counterscreen assay. [Related pubchem assays (depositor defined):AID1509, AID1523, AID1563, AID1686, AID1701, AID1801, AID463107, AID463225, AID504400]; type: functional
[4] = biological target: Sphingosine 1-phosphate receptor 2 (Homo sapiens, UniProt O95136); assay: as §1, with “2 (S1P2)” for “3 (S1P3)”; type: functional
[5] = biological target: Sphingosine 1-phosphate receptor 5 (Homo sapiens, UniProt Q9H228); assay: as §1, with “5 (S1P5)” for “3 (S1P3)”; type: functional
[6] = biological target: Sphingosine 1-phosphate receptor 1 (Homo sapiens, UniProt P21453); assay: as §1, with “1 (S1P1)” for “3 (S1P3)”; type: functional
[7] = biological target: T1, G-protein coupled receptor 55 (Homo sapiens, UniProt Q9Y2T6); assay: GPR55 antagonists blocking LPI-driven arrestin recruitment, primary screen, imaging, U2OS, beta-arrestin-GFP, LPI agonist (AID 2013); type: functional;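 note: antagonist potency measured as reduced agonist-driven arrestin aggregation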
[8] = biological target: T2, G-protein coupled receptor 35 (Homo sapiens, UniProt Q9HC97); assay: SAR analysis of Agonists of the GPR35 Receptor using an Image-Based Assay - Set 2. [Related pubchem assays (depositor defined):AID2013, AID2026]; type: functional
Cannabinoid receptor 1 [9] = biological target: T3, Cannabinoid receptor 1 (Homo sapiens, UniProt P21554); assay: SAR analysis of antagonists of the Cannabinoid Receptor 1 using an Image-Based Assay - Set 2. [Related pubchem assays (depositor defined):AID2013, AID2026]; type: functional
[10] = biological target: T1, G-protein coupled receptor 55; assay: GPR55 antagonist potency of analogs, SAR follow-up, imaging, U2OS, beta-arrestin-GFP, LPI agonist, set 2 (AID 2820); type: functional
Cannabinoid receptor 2 [11] = biological target: T4, Cannabinoid receptor 2 (Homo sapiens, UniProt P34972); assay: SAR analysis of agonists of the Cannabinoid Receptor 2 using an Image-Based Assay. [Related pubchem assays (depositor defined):AID2013, AID2026]; type: functional
Cannabinoid receptor 2 [12] = biological target: T4, Cannabinoid receptor 2; assay: SAR analysis of antagonists of the Cannabinoid Receptor 2 using an Image-Based Assay. [Related pubchem assays (depositor defined):AID2013, AID2026]; type: functional
Cannabinoid receptor 1 [13] = biological target: T3, Cannabinoid receptor 1; assay: SAR analysis of agonists of the Cannabinoid Receptor 1 using an Image-Based Assay - Set 2. [Related pubchem assays (depositor defined):AID2013, AID2026]; type: functional
[14] = biological target: T2, G-protein coupled receptor 35; assay: SAR analysis of Antagonists of the GPR35 Receptor using an Image-Based Assay - Set 3. [Related pubchem assays (depositor defined):AID2013, AID2026]; type: functional
Cannabinoid receptor 2 [15] = biological target: T4, Cannabinoid receptor 2; assay: SAR analysis of agonists of the Cannabinoid Receptor 2 using an Image-Based Assay - Set 3. [Related pubchem assays (depositor defined):AID2013, AID2026]; type: functional
Cannabinoid receptor 1 [16] = biological target: T3, Cannabinoid receptor 1; assay: SAR analysis of antagonists of the Cannabinoid Receptor 1 using an Image-Based Assay - Set 4. [Related pubchem assays (depositor defined):AID2013, AID2026]; type: functional
Cannabinoid receptor 1 [17] = biological target: T3, Cannabinoid receptor 1; assay: SAR analysis of agonists of the Cannabinoid Receptor 1 using an Image-Based Assay - Set 4. [Related pubchem assays (depositor defined):AID2013, AID2026]; type: functional
Cannabinoid receptor 2 [18] = biological target: T4, Cannabinoid receptor 2; assay: SAR analysis of antagonists of the Cannabinoid Receptor 2 using an Image-Based Assay - Set 3. [Related pubchem assays (depositor defined):AID2013, AID2026]; type: functional
[19] = biological target: T1, G-protein coupled receptor 55; assay: SAR Analysis of Selective Antagonists of GPR55 using an Image-Based Assay - Set 4. [Related pubchem assays (depositor defined):AID2013, AID2026]; type: functional
[20] = biological target: T2, G-protein coupled receptor 35; assay: SAR analysis of Agonists of the GPR35 Receptor using an Image-Based Assay - Set 4. [Related pubchem assays (depositor defined):AID2013, AID2026]; type: functional
[21] = biological target: T2, G-protein coupled receptor 35; assay: SAR analysis of Antagonists of the GPR35 Receptor using an Image-Based Assay - Set 6. [Related pubchem assays (depositor defined):AID2013, AID2026]; type: functional
[22] = biological target: T5, Runt-related transcription factor 1/Core-binding factor subunit beta (Homo sapiens, UniProt Q01196+Q13951); assay: inhibitors of RUNX1 Runt–CBFb-SMMHC binding, biochemical, TR-FRET (AID 1438); type: protein assay
[23] = biological target: T5, Runt-related transcription factor 1/Core-binding factor subunit beta; assay: inhibitors of RUNX1 Runt–CBFb-SMMHC binding, primary screen, biochemical, FRET, Cerulean-Runt, Venus-CBFb-SMMHC, uHTS (AID 1434); type: protein assay;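 note: partner is the CBFb-SMMHC leukemia fusion protein rather than wild-type CBFb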
[24] = biological target: Dual specificity protein phosphatase 3 (Homo sapiens, UniProt P51452); assay: SAR VHR1 Fluorescent Assay for In Vitro dose response studies Set 2. [Related pubchem assays (depositor defined):AID1654, AID1661, AID1878]; type: functional
[25] = biological target: T6, Tyrosine-protein phosphatase non-receptor type 7 (Homo sapiens, UniProt P35236); assay: redox-dependent HePTP inhibition, mechanism study, biochemical, fluorescence (AID 2068); type: functional
T6 sequence (P35236 whole entry): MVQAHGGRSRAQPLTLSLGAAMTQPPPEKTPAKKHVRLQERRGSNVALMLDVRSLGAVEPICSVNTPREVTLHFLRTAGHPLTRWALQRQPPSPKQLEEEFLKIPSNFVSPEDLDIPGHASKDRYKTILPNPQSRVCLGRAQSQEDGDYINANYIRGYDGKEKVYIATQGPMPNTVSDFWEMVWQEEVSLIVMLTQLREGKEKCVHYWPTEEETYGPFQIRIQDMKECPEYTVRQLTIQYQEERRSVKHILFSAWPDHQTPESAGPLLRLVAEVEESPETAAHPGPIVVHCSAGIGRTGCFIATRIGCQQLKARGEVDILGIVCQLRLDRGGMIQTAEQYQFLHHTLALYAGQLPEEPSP

[26] = biological target: T6, Tyrosine-protein phosphatase non-receptor type 7; assay: HePTP (PTPN7) phosphatase inhibitor potency, SAR follow-up, biochemical, set 2 (AID 449736); type: functional
[27] = biological target: T7, Dual specificity protein phosphatase 6 (Rattus norvegicus, UniProt Q64346); type: functional;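 note: confirmatory in vitro dose-response testing of MKP-3 inhibition; recombinant His-tagged MKP-3 made in E. coli BL21 with OMFP substrate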
T7 sequence (Q64346 whole entry): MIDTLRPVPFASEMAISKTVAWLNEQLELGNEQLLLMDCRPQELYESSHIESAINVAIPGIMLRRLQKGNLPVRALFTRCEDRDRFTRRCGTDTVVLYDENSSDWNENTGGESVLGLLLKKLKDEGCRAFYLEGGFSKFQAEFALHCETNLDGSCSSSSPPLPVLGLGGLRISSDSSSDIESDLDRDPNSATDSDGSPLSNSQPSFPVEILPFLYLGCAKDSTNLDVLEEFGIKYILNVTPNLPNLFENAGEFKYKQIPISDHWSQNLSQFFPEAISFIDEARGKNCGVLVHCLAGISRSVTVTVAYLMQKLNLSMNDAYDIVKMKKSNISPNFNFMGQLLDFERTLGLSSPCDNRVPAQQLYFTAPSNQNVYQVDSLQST

[28] = biological target: T8, Tyrosine-protein phosphatase non-receptor type 22 (Homo sapiens, UniProt Q9Y2R2); assay: LYP (PTPN22) phosphatase inhibitor potency, SAR follow-up, biochemical, pCAP fluorogenic substrate, fluorescence, set 3 (AID 449727); type: functional
T8 sequence (Q9Y2R2 whole entry): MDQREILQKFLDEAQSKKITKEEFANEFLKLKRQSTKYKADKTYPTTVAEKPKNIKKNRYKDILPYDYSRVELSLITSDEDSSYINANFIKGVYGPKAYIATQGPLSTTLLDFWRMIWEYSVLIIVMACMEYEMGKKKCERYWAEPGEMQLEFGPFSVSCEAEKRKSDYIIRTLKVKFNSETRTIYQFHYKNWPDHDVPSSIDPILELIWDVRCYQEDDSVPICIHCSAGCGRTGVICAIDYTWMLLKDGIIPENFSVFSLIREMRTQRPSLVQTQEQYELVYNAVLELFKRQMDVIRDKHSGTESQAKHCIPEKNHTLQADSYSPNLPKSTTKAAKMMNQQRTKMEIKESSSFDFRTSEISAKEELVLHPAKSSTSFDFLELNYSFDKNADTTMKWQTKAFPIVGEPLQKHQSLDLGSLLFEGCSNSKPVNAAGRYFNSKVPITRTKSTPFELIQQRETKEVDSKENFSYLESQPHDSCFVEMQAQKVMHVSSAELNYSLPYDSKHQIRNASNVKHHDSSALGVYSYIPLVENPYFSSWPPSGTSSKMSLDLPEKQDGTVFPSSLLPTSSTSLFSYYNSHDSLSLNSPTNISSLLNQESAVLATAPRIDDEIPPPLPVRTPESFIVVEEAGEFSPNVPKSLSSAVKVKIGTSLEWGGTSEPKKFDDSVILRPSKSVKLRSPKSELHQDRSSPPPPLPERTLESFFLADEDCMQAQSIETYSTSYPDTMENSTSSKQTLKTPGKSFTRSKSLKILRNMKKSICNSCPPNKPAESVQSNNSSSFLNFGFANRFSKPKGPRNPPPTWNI

[29] = biological target: T8, Tyrosine-protein phosphatase non-receptor type 22; assay: SAR LYP1 Fluorescent Assay using OMFP substrate for In Vitro dose response studies - Set 3. [Related pubchem assays (depositor defined):AID1779, AID1784, AID2140, AID2686]; type: functional
[30] = biological target: Tyrosine-protein phosphatase non-receptor type 12 (Homo sapiens, UniProt Q05209); assay: SAR Selectivity Analysis of small molecule inhibitors of PEST using pCAP in a fluorescence assay. [Related pubchem assays (depositor defined):AID1779, AID1784, AID2135]; type: functional
[31] = biological target: T9, Type-1 angiotensin II receptor (Homo sapiens, UniProt P30556); assay: AT1 receptor agonists, dose response, selectivity assay for APJ receptor agonist project, cell-based, uHTS hits (AID 488865); type: functional;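 note: beta-arrestin recruitment to AT1 measured by enzyme fragment complementation luminescence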
T9 sequence (P30556 whole entry): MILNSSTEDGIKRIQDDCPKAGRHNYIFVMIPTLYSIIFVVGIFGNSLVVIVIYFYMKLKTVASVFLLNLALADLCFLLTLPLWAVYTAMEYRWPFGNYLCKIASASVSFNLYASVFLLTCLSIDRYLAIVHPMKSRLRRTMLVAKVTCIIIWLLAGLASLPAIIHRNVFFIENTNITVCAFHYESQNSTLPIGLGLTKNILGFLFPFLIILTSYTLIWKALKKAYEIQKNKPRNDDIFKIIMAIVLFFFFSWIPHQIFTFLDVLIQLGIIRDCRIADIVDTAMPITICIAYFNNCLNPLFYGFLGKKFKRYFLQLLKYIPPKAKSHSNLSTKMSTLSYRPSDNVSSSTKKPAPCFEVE

T1 sequence (Q9Y2T6 whole entry): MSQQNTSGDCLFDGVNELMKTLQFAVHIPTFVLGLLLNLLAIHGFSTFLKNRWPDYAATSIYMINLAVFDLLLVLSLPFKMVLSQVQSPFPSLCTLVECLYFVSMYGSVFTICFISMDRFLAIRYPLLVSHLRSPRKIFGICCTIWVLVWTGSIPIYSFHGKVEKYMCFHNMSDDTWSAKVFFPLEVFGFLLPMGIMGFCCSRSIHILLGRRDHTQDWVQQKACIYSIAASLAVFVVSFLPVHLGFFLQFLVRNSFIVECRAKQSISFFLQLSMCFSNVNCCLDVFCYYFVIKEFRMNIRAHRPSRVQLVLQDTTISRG
T2 sequence (Q9HC97 whole entry): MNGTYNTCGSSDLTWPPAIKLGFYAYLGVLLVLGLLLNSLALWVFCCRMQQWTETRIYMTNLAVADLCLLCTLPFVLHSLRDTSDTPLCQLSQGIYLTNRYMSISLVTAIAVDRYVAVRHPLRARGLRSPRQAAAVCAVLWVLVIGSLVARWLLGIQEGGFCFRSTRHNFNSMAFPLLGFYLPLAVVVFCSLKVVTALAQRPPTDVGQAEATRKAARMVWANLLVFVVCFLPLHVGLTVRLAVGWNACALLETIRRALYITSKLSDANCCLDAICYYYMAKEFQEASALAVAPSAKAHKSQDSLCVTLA
T3 sequence (P21554 whole entry): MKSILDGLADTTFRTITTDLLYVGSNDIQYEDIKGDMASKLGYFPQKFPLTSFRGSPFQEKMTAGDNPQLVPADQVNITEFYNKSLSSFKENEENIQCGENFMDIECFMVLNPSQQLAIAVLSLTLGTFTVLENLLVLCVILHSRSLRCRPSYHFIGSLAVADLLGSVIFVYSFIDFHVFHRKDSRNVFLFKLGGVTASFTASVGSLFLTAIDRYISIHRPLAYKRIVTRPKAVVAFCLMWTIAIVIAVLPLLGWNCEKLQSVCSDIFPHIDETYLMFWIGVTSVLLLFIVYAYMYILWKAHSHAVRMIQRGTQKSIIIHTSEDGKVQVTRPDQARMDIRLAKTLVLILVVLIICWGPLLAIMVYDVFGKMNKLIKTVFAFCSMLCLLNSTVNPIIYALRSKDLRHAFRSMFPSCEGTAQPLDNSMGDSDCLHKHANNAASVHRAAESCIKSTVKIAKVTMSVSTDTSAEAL
T4 sequence (P34972 whole entry): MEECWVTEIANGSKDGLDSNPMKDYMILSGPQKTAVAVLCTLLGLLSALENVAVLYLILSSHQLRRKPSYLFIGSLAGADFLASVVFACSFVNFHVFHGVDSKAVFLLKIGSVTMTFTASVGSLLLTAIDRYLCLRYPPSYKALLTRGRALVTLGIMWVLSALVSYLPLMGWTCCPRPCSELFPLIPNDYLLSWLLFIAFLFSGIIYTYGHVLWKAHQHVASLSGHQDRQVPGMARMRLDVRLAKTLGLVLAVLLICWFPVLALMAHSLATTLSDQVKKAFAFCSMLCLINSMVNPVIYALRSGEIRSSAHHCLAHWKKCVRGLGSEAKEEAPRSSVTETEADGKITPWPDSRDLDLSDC
T5 sequence (Q01196 whole entry, the tested form may be a part): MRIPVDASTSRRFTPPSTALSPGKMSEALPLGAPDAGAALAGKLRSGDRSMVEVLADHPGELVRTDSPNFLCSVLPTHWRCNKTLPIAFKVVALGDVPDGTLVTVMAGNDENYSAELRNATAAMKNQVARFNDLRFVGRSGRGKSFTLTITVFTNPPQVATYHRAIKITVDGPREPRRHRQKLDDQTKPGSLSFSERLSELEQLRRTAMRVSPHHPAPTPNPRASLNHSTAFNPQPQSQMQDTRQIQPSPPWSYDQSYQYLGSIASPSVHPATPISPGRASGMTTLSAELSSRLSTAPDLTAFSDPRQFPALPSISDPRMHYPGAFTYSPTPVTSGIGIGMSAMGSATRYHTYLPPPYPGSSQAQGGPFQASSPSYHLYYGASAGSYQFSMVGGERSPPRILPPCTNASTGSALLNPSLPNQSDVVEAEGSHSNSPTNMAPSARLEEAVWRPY
T5 sequence (Q13951 whole entry, the tested form may be a part): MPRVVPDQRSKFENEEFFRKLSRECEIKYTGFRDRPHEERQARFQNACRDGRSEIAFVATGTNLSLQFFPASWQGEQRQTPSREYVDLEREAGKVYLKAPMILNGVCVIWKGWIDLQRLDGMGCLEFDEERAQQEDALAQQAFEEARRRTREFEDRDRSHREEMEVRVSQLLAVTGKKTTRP
Chain of Signal transducer and activator of transcription 3 (P40763 whole entry): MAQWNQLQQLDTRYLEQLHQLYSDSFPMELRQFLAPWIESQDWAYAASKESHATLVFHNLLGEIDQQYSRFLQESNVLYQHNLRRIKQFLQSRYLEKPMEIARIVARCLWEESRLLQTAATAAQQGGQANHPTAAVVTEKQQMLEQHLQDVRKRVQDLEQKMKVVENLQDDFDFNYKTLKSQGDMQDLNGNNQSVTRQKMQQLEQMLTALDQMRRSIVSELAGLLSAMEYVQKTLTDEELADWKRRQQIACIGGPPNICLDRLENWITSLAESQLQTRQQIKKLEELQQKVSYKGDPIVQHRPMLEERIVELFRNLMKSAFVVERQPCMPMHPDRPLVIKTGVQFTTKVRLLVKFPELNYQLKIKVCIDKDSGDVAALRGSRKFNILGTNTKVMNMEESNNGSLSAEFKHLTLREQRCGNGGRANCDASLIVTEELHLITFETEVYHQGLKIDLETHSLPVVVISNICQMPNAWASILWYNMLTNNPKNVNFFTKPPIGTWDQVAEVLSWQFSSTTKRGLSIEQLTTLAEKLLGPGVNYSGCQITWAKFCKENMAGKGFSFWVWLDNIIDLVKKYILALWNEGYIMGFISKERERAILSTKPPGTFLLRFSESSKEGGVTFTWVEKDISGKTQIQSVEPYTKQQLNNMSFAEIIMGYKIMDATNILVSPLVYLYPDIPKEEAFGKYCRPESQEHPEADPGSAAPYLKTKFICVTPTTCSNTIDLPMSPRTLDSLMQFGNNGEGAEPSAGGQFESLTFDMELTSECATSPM
Chain of Signal transducer and activator of transcription 1-alpha/beta (P42224 whole entry): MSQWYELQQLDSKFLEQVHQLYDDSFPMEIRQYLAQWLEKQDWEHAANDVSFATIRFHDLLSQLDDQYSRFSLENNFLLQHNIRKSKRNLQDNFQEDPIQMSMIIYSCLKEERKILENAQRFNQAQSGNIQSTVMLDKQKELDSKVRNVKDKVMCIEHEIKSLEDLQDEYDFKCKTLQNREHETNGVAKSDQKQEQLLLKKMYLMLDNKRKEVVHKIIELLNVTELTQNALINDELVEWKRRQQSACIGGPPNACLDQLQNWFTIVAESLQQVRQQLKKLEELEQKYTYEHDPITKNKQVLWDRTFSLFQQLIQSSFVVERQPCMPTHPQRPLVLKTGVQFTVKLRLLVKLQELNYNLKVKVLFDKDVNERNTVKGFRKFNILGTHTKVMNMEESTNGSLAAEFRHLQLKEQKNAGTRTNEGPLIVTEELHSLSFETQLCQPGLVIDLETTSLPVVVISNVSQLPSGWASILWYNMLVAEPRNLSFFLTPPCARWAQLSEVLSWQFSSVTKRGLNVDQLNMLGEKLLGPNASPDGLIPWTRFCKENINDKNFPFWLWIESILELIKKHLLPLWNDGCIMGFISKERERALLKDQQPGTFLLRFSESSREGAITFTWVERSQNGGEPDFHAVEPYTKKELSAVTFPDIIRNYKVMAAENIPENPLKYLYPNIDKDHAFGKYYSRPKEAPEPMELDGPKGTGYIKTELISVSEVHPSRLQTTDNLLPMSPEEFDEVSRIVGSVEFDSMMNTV
Chain of Sphingosine 1-phosphate receptor 5 (Q9H228 whole entry): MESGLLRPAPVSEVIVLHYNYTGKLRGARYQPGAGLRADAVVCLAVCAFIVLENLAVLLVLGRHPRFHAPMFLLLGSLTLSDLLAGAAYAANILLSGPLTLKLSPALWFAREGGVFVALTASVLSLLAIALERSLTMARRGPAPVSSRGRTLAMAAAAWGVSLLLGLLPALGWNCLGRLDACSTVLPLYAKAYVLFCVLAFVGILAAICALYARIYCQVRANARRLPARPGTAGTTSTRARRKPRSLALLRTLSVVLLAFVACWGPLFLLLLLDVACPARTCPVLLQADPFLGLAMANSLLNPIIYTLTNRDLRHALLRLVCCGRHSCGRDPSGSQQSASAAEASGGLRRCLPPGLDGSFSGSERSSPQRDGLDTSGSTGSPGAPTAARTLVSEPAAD
Chain of Dual specificity protein phosphatase 3 (P51452 whole entry): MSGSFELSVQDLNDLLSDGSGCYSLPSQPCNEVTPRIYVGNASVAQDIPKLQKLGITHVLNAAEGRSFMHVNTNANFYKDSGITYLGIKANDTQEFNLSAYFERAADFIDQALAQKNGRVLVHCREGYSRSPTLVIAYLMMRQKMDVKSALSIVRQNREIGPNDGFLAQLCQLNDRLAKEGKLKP
Chain of Sphingosine 1-phosphate receptor 2 (O95136 whole entry): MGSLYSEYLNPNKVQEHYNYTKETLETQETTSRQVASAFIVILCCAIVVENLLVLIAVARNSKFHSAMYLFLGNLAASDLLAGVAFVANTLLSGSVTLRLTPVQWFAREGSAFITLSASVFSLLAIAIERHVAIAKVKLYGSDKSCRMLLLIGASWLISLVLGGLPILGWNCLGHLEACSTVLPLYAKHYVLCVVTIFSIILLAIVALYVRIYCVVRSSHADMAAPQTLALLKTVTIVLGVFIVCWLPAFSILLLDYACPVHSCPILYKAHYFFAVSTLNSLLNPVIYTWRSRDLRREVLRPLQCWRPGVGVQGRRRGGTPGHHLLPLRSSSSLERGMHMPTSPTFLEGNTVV
Chain of Sphingosine 1-phosphate receptor 1 (P21453 whole entry): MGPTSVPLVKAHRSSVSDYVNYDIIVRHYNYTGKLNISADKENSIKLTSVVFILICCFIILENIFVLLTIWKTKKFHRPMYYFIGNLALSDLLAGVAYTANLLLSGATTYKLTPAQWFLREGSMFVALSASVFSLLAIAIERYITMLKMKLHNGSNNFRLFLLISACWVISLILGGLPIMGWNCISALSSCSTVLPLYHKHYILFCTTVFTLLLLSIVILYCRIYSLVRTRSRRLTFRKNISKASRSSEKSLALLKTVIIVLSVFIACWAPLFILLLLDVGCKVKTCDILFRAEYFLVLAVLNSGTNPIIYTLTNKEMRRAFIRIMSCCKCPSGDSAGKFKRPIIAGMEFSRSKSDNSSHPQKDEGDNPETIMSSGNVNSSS

Compound: Cc1nc(N2CCC(C(O)c3ccccc3)CC2)c2c3c(sc2n1)CCCC3 (stereo unspecified)
IC50 [1]: > 55.7 µM (inactive)
IC50 [2]: > 55.7 µM (inactive)

Compound: Cc1ccc(OCCOc2ccc(Cl)cc2Cl)c(Br)n1
EC50 [3]: > 50 µM (inactive)
EC50 [4]: > 50 µM (inactive)
EC50 [5]: > 50 µM (inactive)
EC50 [6]: > 50 µM (inactive)

Compound: CCc1nnc(NC(=O)c2sc3nc4c(cc3c2N)CCCCC4)s1
IC50 [22]: 16.6 µM (active)
IC50 [23]: 26.5 µM (active)

Compound: COC(=O)COc1ccc(/C=C2\SC(=Nc3ccc(F)cc3)NC2=O)cc1
IC50 [24]: 2.49 µM (active)
IC50 [25]: 1.07 µM (active)
IC50 [26]: 1.58 µM (active)
IC50 [27]: 50.7 µM (active)
IC50 [28]: 3.39 µM (active)
IC50 [29]: 3.49 µM (active)
IC50 [30]: 0.975 µM (active)

Compound: COc1cc(NC(=S)NC(=O)CCc2ccccc2)cc(OC)c1
EC50 [31]: > 100 µM (inactive)

The next lines start with the values.

IC50 [7]: 0.68 µM (active)
EC50 [8]: > 32 µM (inactive)
IC50 (Cannabinoid receptor 1 [9]): 9.6 µM (active)
IC50 [10]: 0.76 µM (active)
EC50 (Cannabinoid receptor 2 [11]): > 32 µM (inactive)
IC50 (Cannabinoid receptor 2 [12]): > 32 µM (inactive)
EC50 (Cannabinoid receptor 1 [13]): > 32 µM (inactive)
IC50 [14]: > 32 µM (inactive)
Compound: O=C(N1CCC(n2nc(-c3ccccc3)oc2=O)CC1)C1(c2ccc(Cl)cc2)CC1

EC50 (Cannabinoid receptor 2 [15]): > 32 µM (inactive)
IC50 (Cannabinoid receptor 1 [16]): 14.7 µM (inactive)
EC50 (Cannabinoid receptor 1 [17]): > 32 µM (inactive)
IC50 (Cannabinoid receptor 2 [18]): > 32 µM (inactive)
IC50 [19]: 22.7 µM (inactive)
EC50 [20]: > 32 µM (inactive)
IC50 [21]: > 32 µM (inactive)
Compound: Cc1nc(N2CCN(C(=O)C(C)C)CC2)c2c3c(sc2n1)CCCC3
